Measurements published in PubChem BioAssay (NCI).
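Each compound was tested at five concentrations against cells in 96-well plates for 48 hours. GI50: concentration for 50% inhibition of growth. The concentration for full growth arrest is given as TGI.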

Experiments:
Assay in all cases: NCI tumour cell line growth inhibition, 48 h
[1] = test system: 786-0 renal
[2] = test system: A498 renal
[3] = test system: A549 NSCLC
[4] = test system: ACHN renal
[5] = test system: BT-549 breast
[6] = test system: CAKI-1 renal
[7] = test system: CCRF-CEM leukemia
[8] = test system: COLO 205 colon
[9] = test system: DU-145 prostate
[10] = test system: EKVX NSCLC
[11] = test system: HCC-2998 colon
[12] = test system: HCT-116 colon
[13] = test system: HCT-15 colon
[14] = test system: HL-60(TB) leukemia
[15] = test system: HOP-62 NSCLC
[16] = test system: HOP-92 NSCLC
[17] = test system: HS 578T breast
[18] = test system: HT29 colon
[19] = test system: IGROV1 ovarian
[20] = test system: K-562 leukemia
[21] = test system: KM12 colon
[22] = test system: LOX IMVI melanoma
[23] = test system: M14 melanoma
[24] = test system: MALME-3M melanoma
[25] = test system: MCF7 breast
[26] = test system: MDA-MB-231 breast
[27] = test system: MDA-MB-435
[28] = test system: MDA-MB-468 breast
[29] = test system: MOLT-4 leukemia
[30] = test system: NCI-H226 lung
[31] = test system: NCI-H23 lung
[32] = test system: NCI-H460 lung
[33] = test system: NCI-H522 lung
[34] = test system: OVCAR-3 ovarian
[35] = test system: OVCAR-4 ovarian
[36] = test system: OVCAR-5 ovarian
[37] = test system: OVCAR-8 ovarian
[38] = test system: PC-3 prostate
[39] = test system: RPMI-8226 leukemia
[40] = test system: RXF 393 renal
[41] = test system: SF-268 CNS
[42] = test system: SF-295 CNS
[43] = test system: SF-539 CNS
[44] = test system: SK-MEL-2 melanoma
[45] = test system: SK-MEL-28 melanoma
[46] = test system: SK-MEL-5 melanoma
[47] = test system: SK-OV-3 ovarian
[48] = test system: SN12C renal
[49] = test system: SNB-19 CNS
[50] = test system: SNB-75 CNS
[51] = test system: SR leukemia
[52] = test system: SW-620 colon
[53] = test system: T-47D breast
[54] = test system: TK-10 renal
[55] = test system: U251 CNS
[56] = test system: UACC-257 melanoma
[57] = test system: UACC-62 melanoma
[58] = test system: UO-31 renal

Compound: N#CC1=C(c2cccs2)Nc2c(c(-c3ccccc3)nn2-c2ccccc2)C12C(=O)Nc1ccccc12 (configuration not stated)
- GI50 [1]: 15.6 µM
- TGI [1]: 31.1 µM
- GI50 [2]: 17.8 µM
- TGI [2]: 35.3 µM
- GI50 [3]: 10.2 µM
- TGI [3]: 23 µM
- GI50 [4]: 12.6 µM
- TGI [4]: 26.4 µM
- GI50 [5]: 5.86 µM
- TGI [5]: 21 µM
- GI50 [6]: 15.7 µM
- TGI [6]: 35 µM
- GI50 [7]: 7.52 µM
- TGI [7]: 46.8 µM
- GI50 [8]: 15.5 µM
- TGI [8]: 34.9 µM
- GI50 [9]: 20.3 µM
- TGI [9]: 46.6 µM
- GI50 [10]: 11.2 µM
- TGI [10]: 33.9 µM
- GI50 [11]: 14 µM
- TGI [11]: 35.6 µM
- GI50 [12]: 11.9 µM
- TGI [12]: 28.1 µM
- GI50 [13]: 8.92 µM
- TGI [13]: 24 µM
- GI50 [14]: 5.75 µM
- TGI [14]: 45.6 µM
- GI50 [15]: 17 µM
- TGI [15]: 44.1 µM
- GI50 [16]: 3.52 µM
- TGI [16]: 15 µM
- GI50 [17]: 14.4 µM
- TGI [17]: 44.9 µM
- GI50 [18]: 14 µM
- TGI [18]: 28.3 µM
- GI50 [19]: 16.2 µM
- TGI [19]: 34.4 µM
- GI50 [20]: 6.17 µM
- TGI [20]: 38.9 µM
- GI50 [21]: 5.13 µM
- TGI [21]: 20.4 µM
- GI50 [22]: 14.4 µM
- TGI [22]: 32.4 µM
- GI50 [23]: 15 µM
- TGI [23]: 32.7 µM
- GI50 [24]: 15.9 µM
- TGI [24]: 30 µM
- GI50 [25]: 12.8 µM
- TGI [25]: 26.5 µM
- GI50 [26]: 16.4 µM
- TGI [26]: 33.8 µM
- GI50 [27]: 17.8 µM
- TGI [27]: 37.2 µM
- GI50 [28]: 11.4 µM
- TGI [28]: 32.4 µM
- GI50 [29]: 12 µM
- TGI [29]: 41.1 µM
- GI50 [30]: 16.9 µM
- TGI [30]: 42.5 µM
- GI50 [31]: 12.9 µM
- TGI [31]: 31.8 µM
- GI50 [32]: 11.3 µM
- TGI [32]: 24.1 µM
- GI50 [33]: 2.99 µM
- TGI [33]: 15.8 µM
- GI50 [34]: 20.9 µM
- TGI [34]: 73.2 µM
- GI50 [35]: 8.25 µM
- TGI [35]: 27 µM
- GI50 [36]: 19.8 µM
- TGI [36]: 45.6 µM
- GI50 [37]: 14.8 µM
- TGI [37]: 29.5 µM
- GI50 [38]: 8.38 µM
- TGI [38]: 24.2 µM
- GI50 [39]: 8.6 µM
- TGI [39]: 83.7 µM
- GI50 [40]: 4.91 µM
- TGI [40]: 21.1 µM
- GI50 [41]: 18.9 µM
- TGI [41]: > 100 µM
- GI50 [42]: 12.8 µM
- TGI [42]: 33.3 µM
- GI50 [43]: 15.2 µM
- TGI [43]: 31.7 µM
- GI50 [44]: 15.8 µM
- TGI [44]: 38.3 µM
- GI50 [45]: 14.9 µM
- TGI [45]: 29.3 µM
- GI50 [46]: 13.7 µM
- TGI [46]: 29.4 µM
- GI50 [47]: 13.7 µM
- TGI [47]: 33.2 µM
- GI50 [48]: 19.6 µM
- TGI [48]: > 100 µM
- GI50 [49]: 9.25 µM
- TGI [49]: > 100 µM
- GI50 [50]: 8.48 µM
- TGI [50]: 30.8 µM
- GI50 [51]: 12.7 µM
- TGI [51]: 58.1 µM
- GI50 [52]: 9.57 µM
- TGI [52]: 28.6 µM
- GI50 [53]: 18.2 µM
- TGI [53]: 69.2 µM
- GI50 [54]: 13.6 µM
- TGI [54]: 31.1 µM
- GI50 [55]: 6.23 µM
- TGI [55]: 20.6 µM
- GI50 [56]: 18.1 µM
- TGI [56]: 48.3 µM
- GI50 [57]: 13.7 µM
- TGI [57]: 27.9 µM
- GI50 [58]: 9.9 µM
- TGI [58]: > 100 µM

Compound: C=CC[Se]C(=O)c1cncc(C(=O)[Se]CC=C)c1
- GI50 [1]: 1.85 µM
- TGI [1]: 3.27 µM
- GI50 [2]: 3.57 µM
- TGI [2]: 47.8 µM
- GI50 [3]: 0.434 µM
- TGI [3]: > 100 µM
- GI50 [4]: 3.28 µM
- TGI [4]: 10.3 µM
- GI50 [5]: 1.74 µM
- TGI [5]: 3.21 µM
- GI50 [6]: 1.8 µM
- TGI [6]: 3.46 µM
- GI50 [7]: 2.42 µM
- TGI [7]: 7.28 µM
- GI50 [8]: 3.65 µM
- TGI [8]: 10.6 µM
- GI50 [9]: 2.22 µM
- TGI [9]: 4.73 µM
- GI50 [10]: 1.46 µM
- TGI [10]: 3.08 µM
- GI50 [11]: 1.06 µM
- TGI [11]: 2.26 µM
- GI50 [12]: 1.31 µM
- TGI [12]: 2.82 µM
- GI50 [13]: 1.95 µM
- TGI [13]: 3.81 µM
- GI50 [14]: 2.64 µM
- TGI [14]: 7.67 µM
- GI50 [15]: 0.525 µM
- TGI [15]: 2.23 µM
- GI50 [16]: 3.3 µM
- TGI [16]: 8.93 µM
- GI50 [17]: 1.94 µM
- TGI [17]: 6.82 µM
- GI50 [18]: 3.03 µM
- TGI [18]: 10.9 µM
- GI50 [19]: 0.544 µM
- TGI [19]: 1.8 µM
- GI50 [20]: 3.15 µM
- TGI [20]: 10.7 µM
- GI50 [21]: 1.34 µM
- TGI [21]: 2.76 µM
- GI50 [22]: 1.74 µM
- TGI [22]: 3.35 µM
- GI50 [23]: 1.81 µM
- TGI [23]: 3.31 µM
- GI50 [24]: 1.92 µM
- TGI [24]: 4.86 µM
- GI50 [25]: 2.21 µM
- TGI [25]: 5.55 µM
- GI50 [26]: 1.8 µM
- TGI [26]: 4 µM
- GI50 [27]: 1.88 µM
- TGI [27]: 3.79 µM
- GI50 [28]: 1.8 µM
- TGI [28]: 3.54 µM
- GI50 [29]: 2.73 µM
- TGI [29]: 7.74 µM
- GI50 [30]: 2.88 µM
- TGI [30]: 10.5 µM
- GI50 [31]: 1.39 µM
- TGI [31]: 2.96 µM
- GI50 [32]: 0.382 µM
- TGI [32]: 3.07 µM
- GI50 [33]: 1.68 µM
- TGI [33]: 3.1 µM
- GI50 [34]: 1.89 µM
- TGI [34]: 3.4 µM
- GI50 [35]: 1.99 µM
- TGI [35]: 3.85 µM
- GI50 [36]: 1.55 µM
- TGI [36]: 3.16 µM
- GI50 [37]: 1.51 µM
- TGI [37]: 2.94 µM
- GI50 [38]: 0.431 µM
- TGI [38]: 1.53 µM
- GI50 [39]: 2.45 µM
- TGI [39]: 6.38 µM
- GI50 [40]: 2.17 µM
- TGI [40]: 5.18 µM
- GI50 [41]: 2.23 µM
- TGI [41]: 6.82 µM
- GI50 [42]: 0.261 µM
- TGI [42]: 0.756 µM
- GI50 [43]: 1.36 µM
- TGI [43]: 2.65 µM
- GI50 [44]: 1.92 µM
- TGI [44]: 3.79 µM
- GI50 [45]: 1.71 µM
- TGI [45]: 3.24 µM
- GI50 [46]: 1.71 µM
- TGI [46]: 3.69 µM
- GI50 [47]: 1.43 µM
- TGI [47]: 3.03 µM
- GI50 [48]: 0.628 µM
- TGI [48]: 1.92 µM
- GI50 [49]: 0.386 µM
- TGI [49]: 1.5 µM
- GI50 [50]: 1.03 µM
- TGI [50]: 2.44 µM
- GI50 [51]: 3.02 µM
- TGI [51]: 27.1 µM
- GI50 [52]: 1.94 µM
- TGI [52]: 3.68 µM
- GI50 [53]: 2.14 µM
- TGI [53]: 5.14 µM
- GI50 [54]: 1.71 µM
- TGI [54]: 3.14 µM
- GI50 [55]: 0.782 µM
- TGI [55]: 2.22 µM
- GI50 [56]: 1.79 µM
- TGI [56]: 3.35 µM
- GI50 [57]: 1.68 µM
- TGI [57]: 3.72 µM
- GI50 [58]: 1.65 µM
- TGI [58]: 3.03 µM
